{"source": "ChEMBL document CHEMBL2046274", "about": "“Pyrazolo[4,3-c][1,2]benzothiazines 5,5-dioxide: a promising new class of Staphylococcus aureus NorA efflux pump inhibitors” (J Med Chem, 2012)", "key": {"[1]": {"target": "T1, Quinolone resistance protein NorA (Staphylococcus aureus) (UniProt P0A0J7)", "T1 sequence (whole entry)": "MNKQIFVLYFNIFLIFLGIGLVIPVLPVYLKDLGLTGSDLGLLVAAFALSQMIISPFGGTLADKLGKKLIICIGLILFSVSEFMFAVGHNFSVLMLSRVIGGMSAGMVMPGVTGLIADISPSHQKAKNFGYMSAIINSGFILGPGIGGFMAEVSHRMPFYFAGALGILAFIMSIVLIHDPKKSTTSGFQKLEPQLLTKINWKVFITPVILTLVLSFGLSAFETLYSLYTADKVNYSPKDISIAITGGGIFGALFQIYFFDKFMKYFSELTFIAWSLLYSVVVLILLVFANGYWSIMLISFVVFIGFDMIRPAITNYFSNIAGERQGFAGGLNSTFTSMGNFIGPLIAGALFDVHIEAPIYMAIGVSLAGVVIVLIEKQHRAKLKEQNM", "experiment": "Inhibition of norA-mediated EtBr efflux in Staphylococcus aureus SA1199B overexpressing norA and expressing A116E GrlA mutation at 50 uM by fluorometry"}, "Staphylococcus aureus [2]": {"tested_on": "Staphylococcus aureus", "experiment": "Antibacterial activity against Staphylococcus aureus SA1199B overexpressing norA and expressing A116E GrlA mutation by microdilution method", "format": "functional"}, "Staphylococcus aureus [3]": {"tested_on": "Staphylococcus aureus", "experiment": "Antibacterial activity against wild type Staphylococcus aureus SA1199 expressing norA by microdilution method", "format": "functional"}, "Staphylococcus aureus [4]": {"tested_on": "Staphylococcus aureus", "experiment": "Antibacterial activity against norA-deficient Staphylococcus aureus SAK1902 by microdilution method", "format": "functional"}, "Staphylococcus aureus [5]": {"tested_on": "Staphylococcus aureus", "experiment": "Antibacterial activity against Staphylococcus aureus SAK2378 overexpressing norA by microdilution method", "format": "functional"}, "[6]": {"target": "T1, Quinolone resistance protein NorA (Staphylococcus aureus)", "experiment": "Inhibition of norA in wild type Staphylococcus aureus SA1199 expressing assessed as potentiation of ciprofloxacin MIC by checkerboard assay"}, "[7]": {"target": "T1, Quinolone resistance protein NorA (Staphylococcus aureus)", "experiment": "Inhibition of norA overexpressed in Staphylococcus aureus SA1199B coexpressing A116E GrlA mutation assessed as potentiation of ciprofloxacin MIC by checkerboard assay"}, "[8]": {"target": "Quinolone resistance protein NorA (Staphylococcus aureus, UniProt P0A0J7, A116E)", "experiment": "Inhibition of norA-mediated EtBr efflux in Staphylococcus aureus SA1199B overexpressing norA and expressing A116E GrlA mutation by fluorometry"}, "[9]": {"target": "T1, Quinolone resistance protein NorA (Staphylococcus aureus)", "experiment": "Inhibition of norA overexpressed in Staphylococcus aureus SA1199B coexpressing A116E GrlA mutation potentiation of EtBr MIC at >6.25 ug/mL by checkerboard assay"}, "[10]": {"target": "T1, Quinolone resistance protein NorA (Staphylococcus aureus)", "experiment": "Inhibition of norA in Staphylococcus aureus SA1199B overexpressing norA and expressing A116E GrlA mutation assessed as fold reduction in ciprofloxacin MIC at >6.25 ug/mL by checkerboard assay"}, "[11]": {"target": "T1, Quinolone resistance protein NorA (Staphylococcus aureus)", "experiment": "Inhibition of norA overexpressed in Staphylococcus aureus SA1199B coexpressing A116E GrlA mutation assessed as fold reduction in ciprofloxacin MIC at >12.5 ug/mL by checkerboard assay"}, "Staphylococcus aureus [12]": {"tested_on": "Staphylococcus aureus", "experiment": "Potentiation of CPX MIC against norA-deficient Staphylococcus aureus SAK1902 by checkerboard assay", "format": "functional, organism-based"}, "[13]": {"target": "T1, Quinolone resistance protein NorA (Staphylococcus aureus)", "experiment": "Inhibition of norA overexpressed in Staphylococcus aureus SAK2378 assessed as potentiation of CPX MIC by checkerboard assay"}, "[14]": {"experiment": "Cytotoxicity against human HepG2 cells after 24 hrs by LDH release assay", "format": "cell-based"}}, "note": "Active and inactive are the calls of the source. The rule behind the calls is not given here."}
{"smiles": "O=S1(=O)Nc2c(-c3ccc(Cl)cc3)nn(-c3ccc(F)cc3)c2-c2ccccc21", "values": [{"measurement": "inhibition", "setting": "[1]", "result": 15.5, "unit": "%"}]}
{"smiles": "Fc1ccc([C@@H]2CCNC[C@H]2COc2ccc3c(c2)OCO3)cc1", "note": "[PAROXETINE]", "values": [{"measurement": "MIC", "setting": "Staphylococcus aureus [2]", "result": "> 100", "unit": "µg/mL"}, {"measurement": "MIC", "setting": "Staphylococcus aureus [3]", "result": "> 100", "unit": "µg/mL"}, {"measurement": "MIC", "setting": "Staphylococcus aureus [4]", "result": "> 100", "unit": "µg/mL"}, {"measurement": "MIC", "setting": "Staphylococcus aureus [5]", "result": 100, "unit": "µg/mL"}, {"measurement": "inhibition", "setting": "[6]", "result": "inactive"}, {"measurement": "inhibition", "setting": "[7]", "result": "Active"}]}
{"smiles": "CN1c2c(-c3ccc(Cl)cc3)nn(-c3cccc(C(F)(F)F)c3)c2-c2ccccc2S1(=O)=O", "values": [{"measurement": "inhibition", "setting": "[1]", "result": 0, "unit": "%"}]}
{"smiles": "O=S1(=O)Nc2c(-c3ccc(Cl)cc3)nn(-c3cccc(F)c3)c2-c2ccccc21", "values": [{"measurement": "inhibition", "setting": "[1]", "result": 33.9, "unit": "%"}]}
{"smiles": "O=C(O)c1cn(C2CC2)c2cc(N3CCNCC3)c(F)cc2c1=O", "note": "[CIPROFLOXACIN]", "values": [{"measurement": "MIC", "setting": "Staphylococcus aureus [2]", "result": 10, "unit": "µg/mL"}, {"measurement": "MIC", "setting": "Staphylococcus aureus [3]", "result": 0.63, "unit": "µg/mL"}, {"measurement": "MIC", "setting": "Staphylococcus aureus [4]", "result": 0.31, "unit": "µg/mL"}, {"measurement": "MIC", "setting": "Staphylococcus aureus [5]", "result": 2.5, "unit": "µg/mL"}]}
{"smiles": "Cc1ccc(-c2cc(C(F)(F)F)nn2-c2ccc(S(N)(=O)=O)cc2)cc1", "note": "[CELECOXIB]", "values": [{"measurement": "inhibition", "setting": "[1]", "result": 64.5, "unit": "%"}, {"measurement": "IC50", "setting": "[8]", "result": "> 40", "unit": "µM"}, {"measurement": "MIC", "setting": "Staphylococcus aureus [2]", "result": "> 100", "unit": "µg/mL"}, {"measurement": "MIC", "setting": "Staphylococcus aureus [3]", "result": "> 100", "unit": "µg/mL"}, {"measurement": "inhibition", "setting": "[6]", "result": "inactive"}, {"measurement": "inhibition", "setting": "[7]", "result": "inactive"}, {"measurement": "inhibition", "setting": "[9]", "result": "Active"}]}
{"smiles": "CS(=O)(=O)Nc1ccc(-n2nc(-c3ccc(Cl)cc3)c3c2-c2ccccc2S(=O)(=O)N3)cc1", "values": [{"measurement": "inhibition", "setting": "[1]", "result": 19.2, "unit": "%"}]}
{"smiles": "O=[N+]([O-])c1ccc(-n2nc(-c3ccc(Cl)cc3)c3c2-c2ccccc2S(=O)(=O)N3)cc1", "values": [{"measurement": "inhibition", "setting": "[1]", "result": 76.9, "unit": "%"}, {"measurement": "IC50", "setting": "[8]", "result": 10, "unit": "µM"}, {"measurement": "MIC", "setting": "Staphylococcus aureus [2]", "result": 50, "unit": "µg/mL"}, {"measurement": "MIC", "setting": "Staphylococcus aureus [3]", "result": 50, "unit": "µg/mL"}, {"measurement": "MIC", "setting": "Staphylococcus aureus [4]", "result": 25, "unit": "µg/mL"}, {"measurement": "MIC", "setting": "Staphylococcus aureus [5]", "result": 25, "unit": "µg/mL"}, {"measurement": "inhibition", "setting": "[6]", "result": "inactive"}, {"measurement": "inhibition", "setting": "[7]", "result": "Active"}, {"measurement": "fold change (FC)", "setting": "[10]", "result": 8}, {"measurement": "fold change (FC)", "setting": "[11]", "result": 16}, {"measurement": "Activity", "setting": "Staphylococcus aureus [12]", "result": "Active"}, {"measurement": "inhibition", "setting": "[13]", "result": "Active"}, {"measurement": "CC50 at 24 h", "setting": "[14]", "result": "> 100", "unit": "µg/mL"}]}
{"smiles": "NS(=O)(=O)c1ccc(-n2nc(-c3ccc(Cl)cc3)c3c2-c2ccccc2S(=O)(=O)N3)cc1", "values": [{"measurement": "inhibition", "setting": "[1]", "result": 29.8, "unit": "%"}]}
{"smiles": "COC(=O)[C@H]1[C@H]2C[C@@H]3c4[nH]c5cc(OC)ccc5c4CCN3C[C@H]2C[C@@H](OC(=O)c2cc(OC)c(OC)c(OC)c2)[C@@H]1OC", "note": "[RESERPINE]", "values": [{"measurement": "MIC", "setting": "Staphylococcus aureus [2]", "result": "> 100", "unit": "µg/mL"}, {"measurement": "MIC", "setting": "Staphylococcus aureus [3]", "result": "> 100", "unit": "µg/mL"}, {"measurement": "MIC", "setting": "Staphylococcus aureus [4]", "result": "> 100", "unit": "µg/mL"}, {"measurement": "MIC", "setting": "Staphylococcus aureus [5]", "result": "> 100", "unit": "µg/mL"}, {"measurement": "inhibition", "setting": "[6]", "result": "inactive"}, {"measurement": "inhibition", "setting": "[7]", "result": "Active"}]}
